According to ChEMBL document CHEMBL1151757, “Synthesis, radiosynthesis, and biological evaluation of fluorine-18-labeled 2beta-carbo(fluoroalkoxy)-3beta-(3'-((Z)-2-haloethenyl)phenyl)nortropanes: candidate radioligands for in vivo imaging of the serotonin transporter with positron emission tomography” (J Med Chem, 2008):

What was measured:
[1] = Drug uptake in awake rhesus monkey thalamus after 0.3 mins postinjection; assay type: ADME, organism-based, Macaca mulatta; details: in vivo, 0.005 h
[2] = Ratio of drug uptake in midbrain to cerebellum in awake rhesus monkey after 115 mins postinjection; assay type: ADME, organism-based, Macaca mulatta; details: in vivo
[3] = Ratio of drug uptake in pons to cerebellum in awake rhesus monkey after 0.8 mins postinjection; assay type: ADME, organism-based, Macaca mulatta; details: in vivo, 48 s
[4] = Drug uptake in awake rhesus monkey medulla after 2.3 mins postinjection; assay type: ADME, organism-based, Macaca mulatta, Medulla of organ; details: in vivo, 138 s
[5] = Ratio of drug uptake in putamen to cerebellum in awake rhesus monkey after 25 mins postinjection; assay type: ADME, organism-based, Macaca mulatta; details: in vivo
[6] = Ratio of drug uptake in caudate to cerebellum in awake rhesus monkey after 10.5 mins postinjection; assay type: ADME, organism-based, Macaca mulatta; details: in vivo, 0.175 h
[7] = Ratio of drug uptake in pons to cerebellum in awake rhesus monkey after 0.3 mins postinjection; assay type: ADME, organism-based, Macaca mulatta; details: in vivo, 0.005 h
[8] = Drug uptake in awake rhesus monkey occipital lobe after 85 mins postinjection; assay type: ADME, organism-based, Macaca mulatta; details: in vivo
[9] = Drug uptake in awake rhesus monkey thalamus after 1.8 mins postinjection; assay type: ADME, organism-based, Macaca mulatta; details: in vivo, 0.03 h
[10] = Drug uptake in awake rhesus monkey cerebellum after 1.8 mins postinjection; assay type: ADME, organism-based, Macaca mulatta; details: in vivo, 0.03 h
[11] = Drug uptake in awake rhesus monkey occipital lobe after 2.3 mins postinjection; assay type: ADME, organism-based, Macaca mulatta; details: in vivo, 138 s
[12] = Drug uptake in awake rhesus monkey midbrain after 1.3 mins postinjection; assay type: ADME, organism-based, Macaca mulatta; details: in vivo, 78 s
[13] = Ratio of drug uptake in putamen to cerebellum in awake rhesus monkey after 0.3 mins postinjection; assay type: ADME, organism-based, Macaca mulatta; details: in vivo, 0.005 h
[14] = Drug uptake in awake rhesus monkey putamen after 2.3 mins postinjection; assay type: ADME, organism-based, Macaca mulatta; details: in vivo, 138 s
[15] = Drug uptake in awake rhesus monkey thalamus after 2.8 mins postinjection; assay type: ADME, organism-based, Macaca mulatta; details: in vivo, 168 s
[16] = Drug uptake in awake rhesus monkey medulla after 0.8 mins postinjection; assay type: ADME, organism-based, Macaca mulatta, Medulla of organ; details: in vivo, 48 s
[17] = Ratio of drug uptake in pons to cerebellum in anesthetized cynomolgus monkey after 205 mins postinjection; assay type: ADME, organism-based, Macaca fascicularis; details: in vivo
[18] = Drug uptake in awake rhesus monkey frontal lobe after 2.8 mins postinjection; assay type: ADME, organism-based, Macaca mulatta; details: in vivo, 168 s
[19] = Ratio of drug uptake in frontal lobe to cerebellum in awake rhesus monkey after 0.8 mins postinjection; assay type: ADME, organism-based, Macaca mulatta; details: in vivo, 48 s
[20] = Drug uptake in awake rhesus monkey occipital lobe after 105 mins postinjection; assay type: ADME, organism-based, Macaca mulatta; details: in vivo, 1.75 h
[21] = Drug uptake in awake rhesus monkey putamen after 1.8 mins postinjection; assay type: ADME, organism-based, Macaca mulatta; details: in vivo, 0.03 h
[22] = Drug uptake in awake rhesus monkey occipital lobe after 115 mins postinjection; assay type: ADME, organism-based, Macaca mulatta; details: in vivo
[23] = Ratio of drug uptake in medulla to cerebellum in anesthetized cynomolgus monkey after 235 mins postinjection; assay type: ADME, organism-based, Macaca fascicularis; details: in vivo
[24] = Ratio of drug uptake in thalamus to cerebellum in awake rhesus monkey after 2.8 mins postinjection; assay type: ADME, organism-based, Macaca mulatta; details: in vivo, 168 s
[25] = biological target: Sodium-dependent noradrenaline transporter (Homo sapiens, UniProt P23975); test: Displacement of [3H]nisoxetine from human NET transfected in human HEK293 cells; assay type: cell-based
Sodium-dependent noradrenaline transporter, sequence (P23975 whole entry): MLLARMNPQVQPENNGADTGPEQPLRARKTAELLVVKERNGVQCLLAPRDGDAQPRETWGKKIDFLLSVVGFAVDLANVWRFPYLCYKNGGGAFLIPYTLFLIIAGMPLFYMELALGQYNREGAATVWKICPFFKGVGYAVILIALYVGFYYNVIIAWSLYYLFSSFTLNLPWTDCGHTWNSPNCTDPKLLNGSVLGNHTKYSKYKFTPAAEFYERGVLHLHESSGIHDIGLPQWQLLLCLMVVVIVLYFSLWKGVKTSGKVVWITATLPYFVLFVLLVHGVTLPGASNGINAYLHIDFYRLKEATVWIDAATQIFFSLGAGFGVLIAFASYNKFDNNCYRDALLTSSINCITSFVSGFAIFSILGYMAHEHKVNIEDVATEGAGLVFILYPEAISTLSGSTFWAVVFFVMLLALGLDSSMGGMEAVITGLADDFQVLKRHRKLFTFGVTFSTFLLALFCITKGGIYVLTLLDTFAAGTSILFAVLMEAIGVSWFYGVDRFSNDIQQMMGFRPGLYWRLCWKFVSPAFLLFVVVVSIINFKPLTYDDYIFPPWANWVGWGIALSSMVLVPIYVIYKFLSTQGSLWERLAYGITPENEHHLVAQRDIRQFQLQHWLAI

[26] = Ratio of drug uptake in caudate to cerebellum in awake rhesus monkey after 0.8 mins postinjection; assay type: ADME, organism-based, Macaca mulatta; details: in vivo, 48 s
[27] = Ratio of drug uptake in midbrain to cerebellum in awake rhesus monkey after 4.5 mins postinjection; assay type: ADME, organism-based, Macaca mulatta; details: in vivo, 0.075 h
[28] = Drug uptake in awake rhesus monkey occipital lobe after 65 mins postinjection; assay type: ADME, organism-based, Macaca mulatta; details: in vivo
[29] = Ratio of drug uptake in frontal lobe to cerebellum in awake rhesus monkey after 65 mins postinjection; assay type: ADME, organism-based, Macaca mulatta; details: in vivo
[30] = Drug uptake in awake rhesus monkey occipital lobe after 2.8 mins postinjection; assay type: ADME, organism-based, Macaca mulatta; details: in vivo, 168 s
[31] = Ratio of drug uptake in pons to cerebellum in awake rhesus monkey after 2.3 mins postinjection; assay type: ADME, organism-based, Macaca mulatta; details: in vivo, 138 s
[32] = Drug uptake in awake rhesus monkey caudate after 2.8 mins postinjection; assay type: ADME, organism-based, Macaca mulatta, Caudate nucleus; details: in vivo, 168 s
[33] = Drug uptake in awake rhesus monkey midbrain after 0.3 mins postinjection; assay type: ADME, organism-based, Macaca mulatta; details: in vivo, 0.005 h
[34] = Drug uptake in awake rhesus monkey caudate after 0.8 mins postinjection; assay type: ADME, organism-based, Macaca mulatta, Caudate nucleus; details: in vivo, 48 s
[35] = biological target: Sodium-dependent serotonin transporter (Homo sapiens, UniProt P31645); test: Displacement of [3H](R,S)citalopram.HBr from human SERT transfected in human HEK293 cells; assay type: cell-based
Sodium-dependent serotonin transporter, sequence (P31645 whole entry): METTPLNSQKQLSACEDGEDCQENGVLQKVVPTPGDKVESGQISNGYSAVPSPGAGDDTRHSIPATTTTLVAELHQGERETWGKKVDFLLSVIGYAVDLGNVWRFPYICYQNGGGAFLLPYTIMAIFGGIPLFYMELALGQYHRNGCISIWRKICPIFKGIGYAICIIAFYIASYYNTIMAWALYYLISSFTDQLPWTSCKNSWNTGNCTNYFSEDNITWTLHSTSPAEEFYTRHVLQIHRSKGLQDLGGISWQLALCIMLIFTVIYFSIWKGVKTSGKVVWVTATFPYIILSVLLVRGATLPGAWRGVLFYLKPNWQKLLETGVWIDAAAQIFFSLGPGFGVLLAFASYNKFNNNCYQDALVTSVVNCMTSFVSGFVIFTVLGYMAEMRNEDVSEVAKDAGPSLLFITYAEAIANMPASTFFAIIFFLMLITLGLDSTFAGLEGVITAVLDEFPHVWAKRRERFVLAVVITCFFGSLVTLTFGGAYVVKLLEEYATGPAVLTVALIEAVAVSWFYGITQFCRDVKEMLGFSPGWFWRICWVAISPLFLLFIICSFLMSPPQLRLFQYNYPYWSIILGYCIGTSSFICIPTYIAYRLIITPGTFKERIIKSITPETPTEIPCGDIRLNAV

[36] = Drug uptake in awake rhesus monkey midbrain after 1.8 mins postinjection; assay type: ADME, organism-based, Macaca mulatta; details: in vivo, 0.03 h
[37] = Drug uptake in awake rhesus monkey brain frontal lobe after 2.25 mins postinjection; assay type: ADME, organism-based, Macaca mulatta; details: in vivo, 135 s
[38] = Drug uptake in awake rhesus monkey brain medulla after 17.5 mins postinjection; assay type: ADME, organism-based, Macaca mulatta; details: in vivo
[39] = Protein binding in anesthetized cynomolgus monkey plasma after 30 mins postinjection; assay type: ADME, organism-based, Macaca fascicularis; details: read-out: PPB (converted)
[40] = Ratio of drug uptake in thalamus to cerebellum in awake rhesus monkey after 75 mins postinjection; assay type: ADME, organism-based, Macaca mulatta; details: in vivo, 1.25 h
[41] = Ratio of drug uptake in caudate to cerebellum in awake rhesus monkey after 105 mins postinjection; assay type: ADME, organism-based, Macaca mulatta; details: in vivo, 1.75 h
[42] = Drug uptake in awake rhesus monkey brain midbrain after 0.75 mins postinjection; assay type: ADME, organism-based, Macaca mulatta; details: in vivo, 45 s
[43] = Drug uptake in awake rhesus monkey brain frontal lobe after 115 mins postinjection; assay type: ADME, organism-based, Macaca mulatta; details: in vivo
[44] = Metabolic stability in anesthetized cynomolgus monkey plasma after 1 min postinjection; assay type: ADME, organism-based, Macaca fascicularis; details: read-out: Stability
[45] = Ratio of drug uptake in thalamus to cerebellum in awake rhesus monkey after 35 mins postinjection; assay type: ADME, organism-based, Macaca mulatta; details: in vivo
[46] = Drug uptake in awake rhesus monkey brain frontal lobe after 1.75 mins postinjection; assay type: ADME, organism-based, Macaca mulatta; details: in vivo, 105 s
[47] = Drug uptake in awake rhesus monkey brain cerebellum after 0.75 mins postinjection; assay type: ADME, organism-based, Macaca mulatta; details: in vivo, 45 s
[48] = Drug uptake in awake rhesus monkey brain pons after 4.5 mins postinjection; assay type: ADME, organism-based, Macaca mulatta; details: in vivo, 0.075 h
[49] = Protein binding in anesthetized cynomolgus monkey plasma after 2 mins postinjection; assay type: ADME, organism-based, Macaca fascicularis; details: read-out: PPB (converted)
[50] = Drug uptake in awake rhesus monkey brain pons after 0.25 mins postinjection; assay type: ADME, organism-based, Macaca mulatta; details: in vivo, 15 s
[51] = Ratio of drug uptake in medulla to cerebellum in awake rhesus monkey after 25 mins postinjection; assay type: ADME, organism-based, Macaca mulatta; details: in vivo
[52] = Protein binding in anesthetized cynomolgus monkey plasma after 60 mins postinjection; assay type: ADME, organism-based, Macaca fascicularis; details: read-out: PPB (converted)
[53] = Protein binding in anesthetized cynomolgus monkey plasma after 120 mins postinjection; assay type: ADME, organism-based, Macaca fascicularis; details: read-out: PPB (converted)
[54] = Drug uptake in awake rhesus monkey brain frontal lobe after 1.25 mins postinjection; assay type: ADME, organism-based, Macaca mulatta; details: in vivo, 75 s
[55] = Ratio of drug uptake in caudate to cerebellum in awake rhesus monkey after 17.5 mins postinjection; assay type: ADME, organism-based, Macaca mulatta; details: in vivo
[56] = Metabolic stability in anesthetized cynomolgus monkey plasma after 180 mins postinjection; assay type: ADME, organism-based, Macaca fascicularis; details: read-out: Stability
[57] = Ratio of drug uptake in midbrain to cerebellum in awake rhesus monkey after 105 mins postinjection; assay type: ADME, organism-based, Macaca mulatta; details: in vivo, 1.75 h
[58] = Drug uptake in awake rhesus monkey brain pons after 13.5 mins postinjection; assay type: ADME, organism-based, Macaca mulatta; details: in vivo, 0.225 h
[59] = Drug uptake in awake rhesus monkey brain pons after 2.75 mins postinjection; assay type: ADME, organism-based, Macaca mulatta; details: in vivo, 165 s
[60] = Drug uptake in awake rhesus monkey brain putamen after 1.25 mins postinjection; assay type: ADME, organism-based, Macaca mulatta; details: in vivo, 75 s
[61] = Drug uptake in awake rhesus monkey brain caudate after 2.25 mins postinjection; assay type: ADME, organism-based, Macaca mulatta, Caudate nucleus; details: in vivo, 135 s
[62] = Ratio of drug uptake in putamen to cerebellum in awake rhesus monkey after 4.5 mins postinjection; assay type: ADME, organism-based, Macaca mulatta; details: in vivo, 0.075 h
[63] = Drug uptake in awake rhesus monkey brain frontal lobe after 2.75 mins postinjection; assay type: ADME, organism-based, Macaca mulatta; details: in vivo, 165 s
[64] = Drug uptake in awake rhesus monkey brain cerebellum after 115 mins postinjection; assay type: ADME, organism-based, Macaca mulatta; details: in vivo
[65] = Drug uptake in anesthetized cynomolgus monkey brain occipital lobe after 187.5 mins postinjection; assay type: ADME, organism-based, Macaca fascicularis; details: in vivo, 3.125 h
[66] = Drug uptake in anesthetized cynomolgus monkey brain frontal lobe after 192.5 mins postinjection; assay type: ADME, organism-based, Macaca fascicularis; details: in vivo

SMILES: O=C(OCC[18F])C1C2CCC(CC1c1ccc(/C=C\I)cc1)N2 (stereo unspecified)
- Drug uptake [1]: 0
- Ratio [2]: 2.5
- Ratio [3]: 4.8
- Drug uptake [4]: 0.68
- Ratio [5]: 1.3
- Ratio [6]: 1
- Ratio [7]: 0
- Drug uptake [8]: 2.74
- Drug uptake [9]: 0.32
- Drug uptake [10]: 0.27
- Drug uptake [11]: 0.36
- Drug uptake [12]: 0.05
- Ratio [13]: 5.1
- Drug uptake [14]: 0.46
- Drug uptake [15]: 0.65
- Drug uptake [16]: 0
- Ratio [17]: 2.7
- Drug uptake [18]: 0.47
- Ratio [19]: 0
- Drug uptake [20]: 2.58
- Drug uptake [21]: 0.31
- Drug uptake [22]: 2.57
- Ratio [23]: 3.3
- Ratio [24]: 1.3
- Ki [25]: 28 nM
- Ratio [26]: 0
- Ratio [27]: 1
- Drug uptake [28]: 2.71
- Ratio [29]: 1.3
- Drug uptake [30]: 0.53
- Ratio [31]: 0.9
- Drug uptake [32]: 0.53
- Drug uptake [33]: 0.08
- Drug uptake [34]: 0
- Ki [35]: 0.08 nM
- Drug uptake [36]: 0.25

SMILES: O=C(OCC[18F])C1C2CCC(CC1c1cccc(/C=C\I)c1)N2 (stereo unspecified)
- Drug uptake [37]: 0.02
- Drug uptake [38]: 0.1
- fraction unbound at 0.5 h [39]: 0.916
- Ratio [40]: 1.5
- Ratio [41]: 1.4
- Drug uptake [42]: 0
- Drug uptake [43]: 0.1
- remaining at 1 min [44]: 93%
- Ratio [45]: 1.4
- Drug uptake [46]: 0.02
- Drug uptake [47]: 0
- Drug uptake [48]: 0.05
- fraction unbound at 2 min [49]: 0.944
- Drug uptake [50]: 0
- Ratio [51]: 1
- fraction unbound at 1 h [52]: 0.915
- fraction unbound at 2 h [53]: 0.934
- Drug uptake [54]: 0
- Ratio [55]: 1.2
- remaining at 3 h [56]: 13%
- Ratio [57]: 1.7
- Drug uptake [58]: 0.08
- Drug uptake [59]: 0.02
- Drug uptake [60]: 0.01
- Drug uptake [61]: 0.03
- Ratio [62]: 1.3
- Drug uptake [63]: 0.03
- Drug uptake [64]: 0.08

SMILES: O=C(OCCC[18F])C1C2CCC(CC1c1cccc(/C=C\Br)c1)N2 (stereo unspecified)
- Drug uptake [65]: 3.05
- Drug uptake [66]: 2.16
